{"source": "ChEMBL document CHEMBL3616465", "about": "“Neutrophil elastase inhibitors for the treatment of (cardio)pulmonary diseases: Into clinical testing with pre-adaptive pharmacophores” (Bioorg Med Chem Lett, 2015)", "key": {"Neutrophil elastase [1]": {"molecular_target": "T1, Neutrophil elastase (Homo sapiens, UniProt P08246)", "T1 sequence (P08246 whole entry)": "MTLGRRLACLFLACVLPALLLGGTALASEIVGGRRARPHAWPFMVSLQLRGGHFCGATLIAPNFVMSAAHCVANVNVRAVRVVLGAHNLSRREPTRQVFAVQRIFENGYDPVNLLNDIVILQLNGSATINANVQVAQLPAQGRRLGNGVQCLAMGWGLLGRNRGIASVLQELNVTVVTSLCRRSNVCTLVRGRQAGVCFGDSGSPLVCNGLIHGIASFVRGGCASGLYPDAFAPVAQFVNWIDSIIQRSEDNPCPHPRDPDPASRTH", "experiment": "Inhibition of human neutrophil elastase using MeO-Succ-Ala-Ala-Pro-Val-AMC as substrate after 30 mins by fluorescence assay"}, "Neutrophil elastase [2]": {"molecular_target": "T1, Neutrophil elastase", "experiment": "Inhibition of neutrophil elastase in human plasma using MeOSuc-Ala-Ala-Pro-Val-AMC as substrate by fluorescence assay"}, "[3]": {"experiment": "Half life in human hepatocytes at 1 uM by LC/MS-MS analysis"}, "Neutrophil elastase [4]": {"molecular_target": "T1, Neutrophil elastase", "experiment": "Inhibition of human neutrophil elastase"}, "[5]": {"experiment": "Selectivity ratio of IC50 for rat neutrophil elastase to IC50 for human neutrophil elastase"}, "Homo sapiens [6]": {"test_system": "Homo sapiens", "experiment": "Inhibition of sputum neutrophil count in cystic fibrosis patient at 60 mg/kg, po bid measured at 24 hrs relative to control", "assay_type": "functional"}, "Homo sapiens [7]": {"species_on_record": "Homo sapiens", "experiment": "Selectivity ratio of IC50 for human trypsin to IC50 for human neutrophil elastase"}, "Homo sapiens [8]": {"species_on_record": "Homo sapiens", "experiment": "Selectivity ratio of IC50 for human PR3 to IC50 for human neutrophil elastase"}, "Homo sapiens [9]": {"species_on_record": "Homo sapiens", "experiment": "Selectivity ratio of IC50 for human CatG to IC50 for human neutrophil elastase"}, "[10]": {"experiment": "Selectivity ratio of IC50 for mouse neutrophil elastase to IC50 for human neutrophil elastase"}, "[11]": {"experiment": "Selectivity ratio of IC50 for porcine pancreatic elastase to IC50 for human neutrophil elastase"}, "Neutrophil elastase [12]": {"molecular_target": "T1, Neutrophil elastase", "experiment": "Inhibition of human neutrophil elastase using MeO-Suc-Ala-Ala-Pro-Val 7-amido-4-methylcoumarin as substrate preincubated for 15 mins followed by substrate addition measured after 90 mins"}, "Homo sapiens [13]": {"species_on_record": "Homo sapiens", "experiment": "Selectivity ratio of IC50 for human chymotrypsin to IC50 for human neutrophil elastase"}, "Pancreatic elastase": {"molecular_target": "Pancreatic elastase (Sus scrofa, UniProt P08419+P00772)", "experiment": "Inhibition of porcine pancreatic elastase using as succinyl-Ala-Ala-Ala-p-nitroanilide as substrate measured every 1 min by spectrophotometric analysis", "assay_type": "protein assay"}, "Neutrophil elastase [14]": {"molecular_target": "T1, Neutrophil elastase", "description": "(§1) Inhibition of neutrophil elastase in human whole blood using MeO-Succ-Ala-Ala-Pro-Val-pNA as substrate after 30 mins by colorimetric analysis"}, "[15]": {"experiment": "Half life in po dosed human administered as qd", "assay_type": "ADME, organism-based", "conditions": "in vivo"}, "[16]": {"molecular_target": "T2, Neutrophil elastase (Homo sapiens) (UniProt P08246)", "T2 sequence (whole entry)": "T1 sequence (P08246 whole entry)", "conditions": "Blood", "description": "as §1"}}, "data": [{"smiles": "CNC(=O)N1C(=O)N(c2cccc(C(F)(F)F)c2)C2=C(C(=O)CC2)[C@H]1c1ccc(C#N)cc1S(C)(=O)=O", "values": [{"measurement": "IC50", "setting": "Neutrophil elastase [1]", "value": "< 1", "unit": "nM"}, {"measurement": "IC50", "setting": "Neutrophil elastase [2]", "value": "< 1", "unit": "nM"}, {"measurement": "half-life at 1 µM", "setting": "[3]", "value": "> 2.17", "unit": "h"}]}, {"smiles": "Cc1c(-c2ccnn2-c2ccc(C#N)cc2)cn2nc(NC(=O)CN(C)C)nc2c1-c1cccc(C(F)(F)F)c1", "values": [{"measurement": "IC50", "setting": "Neutrophil elastase [4]", "value": "< 20", "unit": "nM"}]}, {"smiles": "CS(=O)(=O)c1cc(C#N)ccc1[C@@H]1C2=C(CCC2=O)N(c2cccc(C(F)(F)F)c2)C(=O)N1CC#N", "values": [{"measurement": "IC50", "setting": "Neutrophil elastase [1]", "value": "< 1", "unit": "nM"}, {"measurement": "IC50", "setting": "Neutrophil elastase [2]", "value": "< 1", "unit": "nM"}, {"measurement": "half-life at 1 µM", "setting": "[3]", "value": "> 2.17", "unit": "h"}]}, {"smiles": "Cc1c(-c2ccnn2C)cc(C(=O)NCc2ccc(S(C)(=O)=O)cn2)c(=O)n1-c1cccc(C(F)(F)F)c1", "values": [{"measurement": "Ratio IC50", "setting": "[5]", "value": 18}, {"measurement": "inhibition in vivo at 60 mg/kg", "setting": "Homo sapiens [6]", "value": 50, "unit": "%"}, {"measurement": "Ratio IC50", "setting": "Homo sapiens [7]", "value": "> 2000"}, {"measurement": "Ratio IC50", "setting": "Homo sapiens [8]", "value": "> 1900"}, {"measurement": "Ratio IC50", "setting": "Homo sapiens [9]", "value": "> 680"}, {"measurement": "Ratio IC50", "setting": "[10]", "value": 24}, {"measurement": "Ratio IC50", "setting": "[11]", "value": "> 2000"}, {"measurement": "Ki", "setting": "Neutrophil elastase [12]", "value": 12, "unit": "nM"}, {"measurement": "Ratio IC50", "setting": "Homo sapiens [13]", "value": "> 2000"}]}, {"smiles": "COC(=O)C1=C(C)N(c2cccc(C(F)(F)F)c2)c2n[nH]c(=O)n2[C@@H]1c1ccc(C#N)cc1CCCN(C)C", "values": [{"measurement": "IC50", "setting": "Neutrophil elastase [1]", "value": "< 20", "unit": "nM"}]}, {"smiles": "N#Cc1ccc([C@H]2NC(=O)N(c3cccc(C(F)(F)F)c3)C3=C2C(=O)CC3)cc1", "values": [{"measurement": "half-life at 1 µM", "setting": "[3]", "value": "> 2.17", "unit": "h"}]}, {"smiles": "CC(C)(C)C(=O)Oc1ccc(S(=O)(=O)Nc2ccccc2C(=O)NCC(=O)[O-])cc1.[Na+]", "values": [{"measurement": "IC50", "setting": "Pancreatic elastase", "value": 5600, "unit": "nM"}]}, {"smiles": "CCc1cc(OC)cc2nc(-c3cccnc3N3CC[C@H](N(C)C)C3)oc(=O)c12", "values": [{"measurement": "IC50", "setting": "Neutrophil elastase [14]", "value": 7, "unit": "nM"}]}, {"smiles": "CC1=C(C#N)[C@@H](c2ccc(C#N)cc2S(C)(=O)=O)N(C)C(=O)N1c1cccc(C(F)(F)F)c1", "values": [{"measurement": "half-life", "setting": "[15]", "value": 120, "unit": "h"}]}, {"smiles": "CS(=O)(=O)c1cc(C#N)ccc1[C@@H]1C2=C(CCC2=O)N(c2cccc(C(F)F)c2)C(=O)N1C(=O)NC1CC1", "values": [{"measurement": "half-life at 1 µM", "setting": "[3]", "value": "> 2.17", "unit": "h"}]}, {"smiles": "CC(C)C[C@H]1C(=O)N(COC(=O)Cc2ccccc2Nc2c(Cl)cccc2Cl)S(=O)(=O)N1C", "values": [{"measurement": "K", "setting": "[16]", "value": 9.8, "unit": "×10⁵ /M/s"}]}]}
